23 compounds from patent US11046680B1, “Heteroaryl-substituted triazoles as APJ receptor agonists” (priority 2016, dated 2021) can be followed below.

Usually EC50 stands for the concentration that produces a half-maximal response.

human APJ receptor, sequence (P35414 whole entry): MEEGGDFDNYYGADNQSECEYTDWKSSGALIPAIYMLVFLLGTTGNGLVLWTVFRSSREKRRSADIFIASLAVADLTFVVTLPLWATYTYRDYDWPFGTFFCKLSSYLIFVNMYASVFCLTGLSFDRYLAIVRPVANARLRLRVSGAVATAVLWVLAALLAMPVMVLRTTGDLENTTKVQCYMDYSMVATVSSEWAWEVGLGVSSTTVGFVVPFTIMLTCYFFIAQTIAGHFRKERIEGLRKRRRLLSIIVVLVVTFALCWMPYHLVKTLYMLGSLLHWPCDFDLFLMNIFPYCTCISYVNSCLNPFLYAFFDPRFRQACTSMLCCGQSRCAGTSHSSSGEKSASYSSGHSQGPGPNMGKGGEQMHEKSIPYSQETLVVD

In this test the target is human APJ receptor (Homo sapiens (Human), UniProt P35414). Kind of test: biochemical. It counts as biochemical. The settings on record: [35S]GTPγS binding, CHO membranes expressing human APJ receptor; read-out: Activity hAPJ SPA EC50 IP. Summed up:
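Membranes of a stable CHO line carrying human APJ (pFLAG-CMV-3) were used in a GTPγS binding format; buffer GDP, MgCl2 and NaCl were optimized, and plates were read after 90 min at RT.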
“(2R,3R)-3-(5-Cyanopyrimidin-2-yl)-N-(4-(2,6-dimethoxyphenyl)-5-(4-methylthiazol-2-yl)-4H-1,2,4-triazol-3-yl)-3-fluorobutane-2-sulfonamide and (2S,3S)-3-(5-cyanopyrimidin-2-yl)-N-(4-(2,6-dimethoxyphenyl)-5-(4-methylthiazol-2-yl)-4H-1,2,4-triazol-3-yl)-3-fluorobutane-2-sulfonamide [Example 321.0]”: the EC50 is 1.6 nM. As for `COc1cnc([C@@H](C)[C@H](C)S(=O)(=O)Nc2nnc(-c3cnn4c3CCC4)n2-c2c(OC)cccc2OC)nc1` [Example 485.0, (2S,3R)-N-(5-(5,6-dihydro-4H-pyrrolo[1,2-b]pyrazol-3-yl)-4-(2,6-dimethoxyphenyl)-4H-1,2,4-triazol-3-yl)-3-(5-methoxypyrimidin-2-yl)butane-2-sulfonamide], the figure is 0.3 nM.

With `CC(C)O[C@@H](c1ncc(Cl)cn1)[C@H](C)S(=O)(=O)Nc1nnc(-c2ccn(C)n2)n1C(C)C` [Example 537.0, (1S,2S)-1-(5-chloro-2-pyrimidinyl)-N-(5-(1-methyl-1H-pyrazol-3-yl)-4-(2-propanyl)-4H-1,2,4-triazol-3-yl)-1-(2-propanyloxy)-2-propanesulfonamide], the 50% effective concentration (EC50) is 27 nM. For the compound `CCO[C@H](c1ncc(F)cn1)[C@H](C)S(=O)(=O)Nc1nnc(-c2ccn(C)n2)n1-c1c(OC)cccc1OC` [Example 135.0, (1R,2S)-N-(4-(2,6-Dimethoxyphenyl)-5-(1-methyl-1H-pyrazol-3-yl)-4H-1,2,4-triazol-3-yl)-1-ethoxy-1-(5-fluoro-2-pyrimidinyl)-2-propanesulfonamide], the 50% effective concentration (EC50) was 0.88 nM. The figure for `COc1cccc(OC)c1-n1c(NS(=O)(=O)[C@@H]2CCCN(c3ncc(F)cn3)C2)nnc1-c1ccn(C)n1` (single isomer, unassigned) [Example 262.0, (3R)-N-(4-(2,6-dimethoxyphenyl)-5-(1-methyl-1H-pyrazol-3-yl)-4H-1,2,4-triazol-3-yl)-1-(5-fluoro-2-pyrimidinyl)-3-piperidinesulfonamide or (3S)-N-(4-(2,6-dimethoxyphenyl)-5-(1-methyl-1H-pyrazol-3-yl)-4H-1,2,4-triazol-3-yl)-1-(5-fluoro-2-pyrimidinyl)-3-piperidinesulfonamide] is 4.8 nM; for `COCC1(n2c(NS(=O)(=O)[C@@H](C)[C@H](OC)c3ncc(Cl)cn3)nnc2-c2cnn3ccccc23)CC1` [Example 509.0, (1R,2S)-1-(5-chloropyrimidin-2-yl)-1-methoxy-N-(4-(1-(methoxymethyl)cyclopropyl)-5-(pyrazolo[1,5-a]pyridin-3-yl)-4H-1,2,4-triazol-3-yl)propane-2-sulfonamide] it is 4.1 nM. As for `COc1ncnc(OC)c1-n1c(NS(=O)(=O)[C@@H](C)[C@H](OC)c2ncc(C)cn2)nnc1-c1nc(C2CC2)cs1` [Example 4.0, (1R,2S)-N-(5-(4-cyclopropylthiazol-2-yl)-4-(4,6-dimethoxypyrimidin-5-yl)-4H-1,2,4-triazol-3-yl)-1-methoxy-1-(5-methylpyrimidin-2-yl)propane-2-sulfonamide], the figure is 0.92 nM; as for `C=CCO[C@@H](c1ncc(F)cn1)[C@@H](C)S(=O)(=O)Nc1nnc(-c2nc(C)cs2)n1-c1c(OC)cccc1OC` (single isomer, unassigned) [Example 168.0, (1S,2R)-1-(Allyloxy)-N-(4-(2,6-dimethoxyphenyl)-5-(4-methylthiazol-2-yl)-4H-1,2,4-triazol-3-yl)-1-(5-fluoropyrimidin-2-yl)propane-2-sulfonamide or (1R,2S)-1-(allyloxy)-N-(4-(2,6-dimethoxyphenyl)-5-(4-methylthiazol-2-yl)-4H-1,2,4-triazol-3-yl)-1-(5-fluoropyrimidin-2-yl)propane-2-sulfonamide], 30 nM. The figure for “(R)-N-(4-(2,6-dimethoxyphenyl)-5-(pyrimidin-4-yl)-4H-1,2,4-triazol-3-yl)-1-(5-fluoropyrimidin-2-yl)propane-2-sulfonamide and (R)-N-(4-(2,6-dimethoxyphenyl)-5-(pyrimidin-4-yl)-4H-1,2,4-triazol-3-yl)-1-(5-fluoropyrimidin-2-yl)propane-2-sulfonamide [Example 31.0]” is 190 nM; for `COc1cccc(OC)c1-n1c(NS(=O)(=O)[C@@H](C)[C@H](OC)c2ncc(Cl)cn2)nnc1-c1cc2n(n1)CCC2` [Example 210.0, (1R,2S)-1-(5-chloro-2-pyrimidinyl)-N-(5-(5,6-dihydro-4H-pyrrolo[1,2-b]pyrazol-2-yl)-4-(2,6-dimethoxyphenyl)-4H-1,2,4-triazol-3-yl)-1-methoxy-2-propanesulfonamide] it is 0.83 nM. Turning to `COc1cncc(-c2nnc(NS(=O)(=O)[C@@H](C)[C@H](OC)c3cnc(C)cn3)n2-c2c(OC)cccc2OC)n1` [Example 327.0, (1R,2S)-N-(4-(2,6-dimethoxyphenyl)-5-(6-methoxy-2-pyrazinyl)-4H-1,2,4-triazol-3-yl)-1-methoxy-1-(5-methyl-2-pyrazinyl)-2-propanesulfonamide], the EC50 was 4 nM. As for `COc1cccc(OC)c1-n1c(NS(=O)(=O)[C@@H](C)[C@H](C)c2ncc(C)cn2)nnc1-c1cc(C)[nH]n1` [Example 346.0, (2S,3R)-N-(4-(2,6-dimethoxyphenyl)-5-(5-methyl-1H-pyrazol-3-yl)-4H-1,2,4-triazol-3-yl)-3-(5-methyl-2-pyrimidinyl)-2-butanesulfonamide], the figure is 1.5 nM; as for `CO[C@H](c1ncc(Cl)cn1)[C@H](C)S(=O)(=O)Nc1nnc(-c2noc3ccccc23)n1C(C)C` [Example 511.0, (1R,2S)-N-(5-(benzo[d]isoxazol-3-yl)-4-isopropyl-4H-1,2,4-triazol-3-yl)-1-(5-chloropyrimidin-2-yl)-1-methoxypropane-2-sulfonamide], 200 nM; as for `COc1cccc(OC)c1-n1c(NS(=O)(=O)[C@H](C)[C@H](O)c2ncc(C)cn2)nnc1-c1nc(C)cs1` (single isomer, unassigned) [Example 315.0, (1R,2R)-N-(4-(2,6-dimethoxyphenyl)-5-(4-methylthiazol-2-yl)-4H-1,2,4-triazol-3-yl)-1-hydroxy-1-(5-methylpyrimidin-2-yl)propane-2-sulfonamide or (1S,2S)-N-(4-(2,6-dimethoxyphenyl)-5-(4-methylthiazol-2-yl)-4H-1,2,4-triazol-3-yl)-1-hydroxy-1-(5-methylpyrimidin-2-yl)propane-2-sulfonamide], 0.68 nM. For the compound `COc1ncnc(OC)c1-n1c(NS(=O)(=O)[C@@H](C)[C@H](C)c2ncc(F)cn2)nnc1-c1cnn2c1CCC2` [Example 480.0, (2S,3R)-N-(5-(5,6-dihydro-4H-pyrrolo[1,2-b]pyrazol-3-yl)-4-(4,6-dimethoxypyrimidin-5-yl)-4H-1,2,4-triazol-3-yl)-3-(5-fluoropyrimidin-2-yl)butane-2-sulfonamide], the EC50 was determined as 4.4 nM. The figure for `COc1cccc(OC)c1-n1c(NS(=O)(=O)[C@H](C)Cc2ccc(C#N)cn2)nnc1-c1nc(C)cs1` (single isomer, unassigned) [Example 11.0, (2R)-1-(5-cyano-2-pyridinyl)-N-(4-(2,6-dimethoxyphenyl)-5-(4-methyl-1,3-thiazol-2-yl)-4H-1,2,4-triazol-3-yl)-2-propanesulfonamide or (2S)-1-(5-cyano-2-pyridinyl)-N-(4-(2,6-dimethoxyphenyl)-5-(4-methyl-1,3-thiazol-2-yl)-4H-1,2,4-triazol-3-yl)-2-propanesulfonamide] is 0.8 nM. Regarding `COc1cccc(OC)c1-n1c(NS(=O)(=O)CCc2ccc(Cl)cc2)nnc1-c1cccs1` [Example 311.0, 2-(4-Chlorophenyl)-N-(4-(2,6-dimethoxyphenyl)-5-(thiophen-2-yl)-4H-1,2,4-triazol-3-yl)ethanesulfonamide], the EC50 was 3.8 nM. As for `O=S(=O)(CCc1ccccc1)Nc1nnc(-c2ccc(F)s2)n1-c1ccccc1OC(F)F` [Example 246.0, N-(4-(2-(difluoromethoxy)phenyl)-5-(5-fluoro-2-thiophenyl)-4H-1,2,4-triazol-3-yl)-2-phenylethanesulfonamide], the figure is 39 nM; as for `COc1ccc(C#N)cc1-n1c(NS(=O)(=O)CCc2ccc(Cl)cc2)nnc1-c1cccs1` [Example 247.0, 2-(4-chlorophenyl)-N-(4-(5-cyano-2-methoxyphenyl)-5-(thiophen-2-yl)-4H-1,2,4-triazol-3-yl)ethanesulfonamide], 166 nM; as for `COCC1(n2c(NS(=O)(=O)[C@@H](C)[C@H](OC)c3ncc(Cl)cn3)nnc2-c2n[nH]c3c2CCC3)CCC1` [Example 489.0], 1.3 nM. As for `COc1cccc(OC)c1-n1c(NS(=O)(=O)[C@H](C)Cc2ncc(F)cn2)nnc1-c1ncccn1` (single isomer, unassigned) [Example 59.0, (R)-N-(4-(2,6-dimethoxyphenyl)-5-(pyrimidin-2-yl)-4H-1,2,4-triazol-3-yl)-1-(5-fluoropyrimidin-2-yl)propane-2-sulfonamide or (S)-N-(4-(2,6-dimethoxyphenyl)-5-(pyrimidin-2-yl)-4H-1,2,4-triazol-3-yl)-1-(5-fluoropyrimidin-2-yl)propane-2-sulfonamide], the figure is 110 nM.

For “(R)-N-(4-(2,6-dimethoxyphenyl)-5-(1,5-dimethyl-1H-pyrazol-3-yl)-4H-1,2,4-triazol-3-yl)-1-(5-fluoropyrimidin-2-yl)propane-2-sulfonamide and (S)-N-(4-(2,6-dimethoxyphenyl)-5-(1,5-dimethyl-1H-pyrazol-3-yl)-4H-1,2,4-triazol-3-yl)-1-(5-fluoropyrimidin-2-yl)propane-2-sulfonamide [Example 54.0]”, the EC50 was determined as 33 nM.

As to `COc1cccc(OC)c1-n1c(NS(=O)(=O)CCc2ncc(F)cn2)nnc1-c1nc(C(C)C)cs1` [Example 96.0, N-(4-(2,6-dimethoxyphenyl)-5-(4-isopropylthiazol-2-yl)-4H-1,2,4-triazol-3-yl)-2-(5-fluoropyrimidin-2-yl)ethanesulfonamide], the EC50 worked out at 7 nM.
